Where two headings read alike, the source gives them in different places.
Assays:
[1] = tested on: IL-12/IL-18-induced IFN-γ secretion by mouse immune cells; assay: IL-12/IL-18-induced IFN-γ secretion in mice (serum ELISA); assay type: in vivo, C57BL/6J mice
Description: The purpose of this experiment was to evaluate the inhibitory effect of the compound on IL-12/IL-18-induced IFN-γ secretion by immune cells in mice. The IFN-γ protein level in serum samples of mice treated with the compound was detected using the enzyme-linked immunosorbent assay (ELISA) method.
This experiment was conducted twice.
The compounds were all prepared into a clear solution with 10% DMSO+10% solutol+80% (10% HP-β-CD) as a solvent for PO (oral gavage) administration. The frequency of administration was once daily (QD).
• a) According to the grouping, the mice were administered by gavage (P0) with either the compound formulation or solvent control. • b) One hour later, each mouse received an intraperitoneal injection of IL-12 (0.01 μg per mouse) or PBS buffer. • c) One hour after IL-12 administration, each mouse received an intraperitoneal injection of IL-18 (1 μg per mouse) or PBS buffer. • d) Blood was collected three hours after IL-18 administration, and serum was separated.
• a) Prior to use, all reagents were mixed thoroughly to avoid foaming. • b) The number of strips required was determined based on the number of experimental wells (blanks and standards). Duplicate tests were performed for samples (including standards) and blanks. • c) Sample addition: 100 μL/well of the diluted Cytokine standard was added to the standard wells, 100 μL/well of the sample was added to the sample wells, and 100 μL/well of Dilution buffer R (1×) was added to the blank control wells. • d) Detection antibody addition: 50 μL/well of Biotinylated antibody working solution was added. After mixing, the plate was covered with a sealing film and incubated at 37° C. for 90 minutes. • e) Plate washing: The liquid was discarded from the wells, then 300 μL/well of 1× Washing buffer working solution was added, and allowed to stand for 1 minute before the liquid was discarded from the wells. […]
The plate was covered with a sealing film and incubated at 37° C. for 30 minutes. • g) Plate washing: Step 5 was repeated. • h) Color development: 100 μL/well of TMB was added, then the plate was incubated at 37° C. in the dark for 5 to 30 minutes, and the reaction was terminated depending on the intensity of the color (dark blue) in the well. […] Dual wavelengths were recommended for reading the plate, specifically measuring at a measurement wavelength of 450 nm and a reference wavelength of 610 to 630 nm simultaneously.
The expression level of each sample was calculated based on the standard curve, and statistical analysis of the results for each group was performed, including mean and standard error of the mean (SEM). […] All data were analyzed using GraphPad Prism 6.02.

[2] = Pharmacokinetic testing in rats; assay type: in vivo, male SD rats; settings: rat; for C0: read-out: Starting concentration C0; for Cmax: read-out: Peak concentration Cmax; for AUC(0-t): read-out: Area under the curve AUC0-last
Description: The objective was to study the pharmacokinetic behavior of the compound of the present disclosure in rats and evaluate the pharmacokinetic characteristics, using male SD rats aged 7 to 9 weeks as test animals. The drug concentrations in plasma at different time points after a single intravenous injection (IV) and oral administration (P0) of the compound were determined using LC/MS/MS.
The pharmacokinetic characteristics of the compound in rodents following intravenous injection and oral administration were tested using a standard protocol. Test animals were fasted for 10 to 14 hours before administration and allowed to feed 4 hours post-administration. The compound was prepared into a clear solution with the appropriate solvent for both IV (intravenous injection) and PO (oral gavage) administration. The solvent was […]+10% solutol+80% (10% HP-β-CD aqueous solution). Whole blood samples were collected within 24 hours, centrifuged at 6000 g for 3 minutes, and the supernatant was separated to obtain plasma samples. Protein precipitation was performed by adding four times the volume of acetonitrile solution containing internal standard to the plasma samples. After centrifugation, the supernatant was added with an equal volume of water and then centrifuged before being subjected to LC-MS/MS analysis for quantifying plasma drug concentration. Pharmacokinetic parameters such as peak concentration, time to peak concentration, clearance, half-life, area under the drug-time curve, and bioavailability were calculated.

[3] = single PO administration 3 mg/kg
[4] = single PO administration 10 mg/kg

## CNC(=O)c1nnc(NC(=O)C2CC2)cc1Nc1cccc(-c2ncc(S(=N)(=O)C(C)C)cn2)c1OC (single isomer, unassigned) [WX-011A]
[1]; [3]
  Serum IFN-γ inhibition rate (%): 64%
[1]; [4]
  Serum IFN-γ inhibition rate (%): 96%

## CNC(=O)c1nnc(NC(=O)C2CC2)cc1Nc1cccc(-c2ncc(S(=N)(=O)C(C)C)cn2)c1OC.Cl (single isomer, unassigned) [Hydrochloride of WX-011A]
[2]; IV 1 mg/kg
  Apparent clearance Cl: 16.8 mL/min/kg
  Apparent volume of distribution Vd: 0.5 L/kg
  Area under the curve AUC0-last: 2.075 µM·h
  Half-life T1/2: 36 min
  C0: 4.54 µM
[2]; PO 10 mg/kg
  Area under the curve AUC0-last: 8.202 µM·h
  Bioavailability F %: 41%
  Time to peak concentration Tmax: 30 min
  Cmax: 4.39 µM

## CNC(=O)c1cnc(NC(=O)C2CC2)cc1Nc1cccc(-c2ccc(S(=O)(=O)C(C)C)cn2)c1OC [WX-020]
[1]; [3]
  Serum IFN-γ inhibition rate (%): 40%
[1]; [4]
  Serum IFN-γ inhibition rate (%): 86%
[2]; male, SD, plasma, IV 3 mg/kg, read-out: Apparent volume of distribution Vd
  Vd: 0.9 L/kg
[2]; male, SD, plasma, IV 3 mg/kg
  AUC(0-t): 2.61 µM·h
  C0: 3.03 µM
[2]; male, SD, plasma, IV 3 mg/kg, read-out: Half-life T1/2 (converted)
  half-life: 54 min
[2]; male, SD, plasma, PO 10 mg/kg
  AUC(0-t): 9.76 µM·h
  Cmax: 3.38 µM
[2]; male, SD, plasma, PO 10 mg/kg, read-out: Bioavailability F%
  bioavailability: 39%
[2]; male, SD, plasma, PO 10 mg/kg, read-out: Time to peak concentration Tmax
  Tmax: 48 min
[2]; IV 3 mg/kg
  Apparent clearance Cl: 13.1 mL/min/kg
